Assay results reported in ChEMBL document CHEMBL1201862, “PubChem BioAssay data set” (2004).
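Protocol summary: plate cells (96-well), add compound at 5 concentrations, incubate 48 h, interpolate endpoints linearly. The concentration for 50% growth inhibition is given as GI50.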 Active and inactive are the calls of the source. Cut-off read from the data, not from the text of the source: active = GI50 up to about 1.1 µM and inactive = higher.

Columns and labels:
Assay in all cases: NCI anticancer screen, dose series, 48 h
[1] = tested on: CCRF-CEM
[2] = tested on: EKVX
[3] = tested on: HCC 2998
[4] = tested on: HCT-116
[5] = tested on: HCT-15
[6] = tested on: HOP-62
[7] = tested on: HT-29
[8] = tested on: K562
[9] = tested on: MOLT-4
[10] = tested on: Malme-3M
[11] = tested on: NCI-H522
[12] = tested on: OVCAR-4
[13] = tested on: OVCAR-5
[14] = tested on: SF-539
[15] = tested on: SK-MEL-28
[16] = tested on: SK-MEL-5
[17] = tested on: SK-OV-3
[18] = tested on: SNB-19
[19] = tested on: SW-620
[20] = tested on: UO-31

| SMILES | GI50 [1] | GI50 [2] | GI50 [3] | GI50 [4] | GI50 [5] [µM] | GI50 [6] | GI50 [7] | GI50 [8] | GI50 [9] | GI50 [10] | GI50 [11] | GI50 [12] | GI50 [13] | GI50 [14] | GI50 [15] | GI50 [16] | GI50 [17] | GI50 [18] | GI50 [19] | GI50 [20] |
| --- | --- | --- | --- | --- | --- | --- | --- | --- | --- | --- | --- | --- | --- | --- | --- | --- | --- | --- | --- | --- |
| OC(c1ccc(Br)cc1)(c1cccs1)C1CC1 (stereo unspecified) | 26.2 µM (inactive) | 31.3 µM (inactive) | 23.6 µM (inactive) | 16.3 µM (inactive) | 25.4 | 23.3 µM (inactive) | 23.4 µM (inactive) | 29.9 µM (inactive) | 22.1 µM (inactive) | 20.5 µM (inactive) | 18.5 µM (inactive) | 22.7 µM (inactive) | 26.7 µM (inactive) | 21.4 µM (inactive) | 22.2 µM (inactive) | 18.7 µM (inactive) | 36.4 µM (inactive) | 41.1 µM (inactive) | 30.5 µM (inactive) | 26.7 µM (inactive) |
| CCOC(=O)c1ccc(N2C(=O)/C(=C/c3ccc(N(CCC#N)CCC#N)cc3)N=C2c2cc([N+](=O)[O-])ccc2Cl)cc1 | > 100 µM (inactive) | > 100 µM (inactive) | > 100 µM (inactive) | > 100 µM (inactive) | > 100 | > 100 µM (inactive) | – | > 100 µM (inactive) | > 100 µM (inactive) | > 100 µM (inactive) | > 100 µM (inactive) | > 100 µM (inactive) | > 100 µM (inactive) | > 100 µM (inactive) | > 100 µM (inactive) | > 100 µM (inactive) | > 100 µM (inactive) | > 100 µM (inactive) | > 100 µM (inactive) | > 100 µM (inactive) |
| CCOC(=O)/C(C#N)=C\c1ccc(N(CCC(=O)O)CCC(=O)O)c(I)c1 | > 10 µM (inactive) | > 10 µM (inactive) | > 10 µM (inactive) | > 10 µM (inactive) | > 10 | > 10 µM (inactive) | > 10 µM (inactive) | > 10 µM (inactive) | > 10 µM (inactive) | > 10 µM (inactive) | > 10 µM (inactive) | > 10 µM (inactive) | – | > 10 µM (inactive) | > 10 µM (inactive) | > 10 µM (inactive) | > 10 µM (inactive) | > 10 µM (inactive) | > 10 µM (inactive) | > 10 µM (inactive) |
| CC1=NN(C(=O)c2ccc(C)cc2)C(=O)C1/N=N/c1ccccc1C(=O)O (stereo unspecified) | 53.7 µM (inactive) | > 100 µM (inactive) | > 100 µM (inactive) | > 100 µM (inactive) | 52.6 | > 100 µM (inactive) | > 32.1 µM (inactive) | 66.4 µM (inactive) | > 73.8 µM (inactive) | > 100 µM (inactive) | 29.6 µM (inactive) | > 100 µM (inactive) | > 100 µM (inactive) | > 100 µM (inactive) | > 100 µM (inactive) | > 100 µM (inactive) | > 100 µM (inactive) | > 100 µM (inactive) | > 100 µM (inactive) | > 100 µM (inactive) |
| CCOC(=O)c1c(CN2CCNCC2)nc2ccccc2c1-c1ccccc1 | 12.7 µM (inactive) | 15.5 µM (inactive) | 1.9 µM (inactive) | 11.4 µM (inactive) | 16.1 | 16.9 µM (inactive) | 5.41 µM (inactive) | 12.6 µM (inactive) | 10.8 µM (inactive) | 10.2 µM (inactive) | 14.3 µM (inactive) | 15 µM (inactive) | 16.8 µM (inactive) | 16.8 µM (inactive) | 11.7 µM (inactive) | 13.6 µM (inactive) | 16.5 µM (inactive) | 17.5 µM (inactive) | 17.1 µM (inactive) | 7.28 µM (inactive) |
| COc1ccccc1/C=C1\Sc2scc(-c3cccc([N+](=O)[O-])c3)[n+]2C1=O | 0.476 µM (active) | 11.4 µM (inactive) | 10.4 µM (inactive) | 4.69 µM (inactive) | 2.11 | 13.9 µM (inactive) | 3.27 µM (inactive) | 2.79 µM (inactive) | 1.28 µM (inactive) | 3.3 µM (inactive) | 1.34 µM (inactive) | 13.3 µM (inactive) | 15.6 µM (inactive) | 1.62 µM (inactive) | 15 µM (inactive) | 2.53 µM (inactive) | 13.2 µM (inactive) | 12.1 µM (inactive) | 4.32 µM (inactive) | 2.86 µM (inactive) |
| Cc1cc2c(nn1)-c1ccccc1C2=O | > 10 µM (inactive) | > 10 µM (inactive) | > 10 µM (inactive) | > 10 µM (inactive) | > 10 | > 10 µM (inactive) | > 10 µM (inactive) | > 10 µM (inactive) | > 10 µM (inactive) | > 10 µM (inactive) | > 10 µM (inactive) | > 10 µM (inactive) | > 10 µM (inactive) | > 10 µM (inactive) | > 10 µM (inactive) | > 10 µM (inactive) | > 10 µM (inactive) | > 10 µM (inactive) | > 10 µM (inactive) | > 10 µM (inactive) |
| OCC(O)COc1ccc(Br)cc1 (stereo unspecified) | > 100 µM (inactive) | > 100 µM (inactive) | > 100 µM (inactive) | > 100 µM (inactive) | > 100 | > 100 µM (inactive) | > 100 µM (inactive) | > 100 µM (inactive) | – | > 100 µM (inactive) | > 100 µM (inactive) | > 100 µM (inactive) | > 100 µM (inactive) | > 100 µM (inactive) | > 100 µM (inactive) | > 100 µM (inactive) | > 100 µM (inactive) | > 100 µM (inactive) | > 100 µM (inactive) | > 100 µM (inactive) |
| CCCCCCCCCCCCCCCc1ccc(OCC(O)CO)cc1 (stereo unspecified) | > 100 µM (inactive) | 31.9 µM (inactive) | 22.9 µM (inactive) | 17.1 µM (inactive) | 81.8 | 47.1 µM (inactive) | 21.7 µM (inactive) | > 100 µM (inactive) | > 100 µM (inactive) | 22.4 µM (inactive) | 18.2 µM (inactive) | 16.3 µM (inactive) | > 100 µM (inactive) | 49.7 µM (inactive) | 25.6 µM (inactive) | 34 µM (inactive) | 99.3 µM (inactive) | 40.1 µM (inactive) | 22.3 µM (inactive) | > 100 µM (inactive) |
| COc1ccc(OC)c(/C=C/C(=O)C(C)(C)C)c1 | 14.3 µM (inactive) | 16.4 µM (inactive) | 23.2 µM (inactive) | 17.9 µM (inactive) | 20.1 | 23.3 µM (inactive) | 27.4 µM (inactive) | 20.8 µM (inactive) | 13.6 µM (inactive) | 17.9 µM (inactive) | 13.8 µM (inactive) | 22.6 µM (inactive) | > 10 µM (inactive) | 19.8 µM (inactive) | 17.2 µM (inactive) | 15 µM (inactive) | 37.2 µM (inactive) | 17.2 µM (inactive) | 14.5 µM (inactive) | – |
| COc1cc2cc[n+]3c(C)c4cc(OC)c(OC)cc4c([O-])c3c2cc1OC | 27 µM (inactive) | > 100 µM (inactive) | > 100 µM (inactive) | 89.7 µM (inactive) | > 100 | > 100 µM (inactive) | 41.2 µM (inactive) | 64.3 µM (inactive) | 48.8 µM (inactive) | 26.9 µM (inactive) | 18.2 µM (inactive) | 85.7 µM (inactive) | > 100 µM (inactive) | 36.9 µM (inactive) | 64.3 µM (inactive) | 36.8 µM (inactive) | > 100 µM (inactive) | > 100 µM (inactive) | 41.9 µM (inactive) | > 100 µM (inactive) |
| CSc1cc(=O)n2c3ccccc3c3ccnc1c32 | > 100 µM (inactive) | 24.4 µM (inactive) | > 100 µM (inactive) | > 100 µM (inactive) | 39.7 | 35.5 µM (inactive) | > 100 µM (inactive) | > 100 µM (inactive) | > 100 µM (inactive) | > 86.7 µM (inactive) | > 81.8 µM (inactive) | > 100 µM (inactive) | 97.1 µM (inactive) | > 50 µM (inactive) | > 100 µM (inactive) | 43.4 µM (inactive) | 25.6 µM (inactive) | > 64.3 µM (inactive) | > 100 µM (inactive) | 45.6 µM (inactive) |
| CC(C(=O)O)c1cnn(-c2ccccc2)c1-n1cccc1 (stereo unspecified) | > 100 µM (inactive) | > 100 µM (inactive) | > 100 µM (inactive) | > 100 µM (inactive) | > 100 | > 100 µM (inactive) | > 100 µM (inactive) | > 100 µM (inactive) | > 100 µM (inactive) | > 100 µM (inactive) | > 100 µM (inactive) | > 100 µM (inactive) | > 100 µM (inactive) | > 100 µM (inactive) | > 100 µM (inactive) | > 100 µM (inactive) | > 100 µM (inactive) | > 100 µM (inactive) | > 63 µM (inactive) | > 100 µM (inactive) |
| O=C1C(CO)=C[C@H](O)[C@H]2O[C@@H]12 | 74.8 µM (inactive) | 121 µM (inactive) | 311 µM (inactive) | 104 µM (inactive) | 124 | 497 µM (inactive) | 260 µM (inactive) | 163 µM (inactive) | 133 µM (inactive) | 137 µM (inactive) | 88.7 µM (inactive) | 130 µM (inactive) | 264 µM (inactive) | 242 µM (inactive) | 136 µM (inactive) | 202 µM (inactive) | 330 µM (inactive) | 419 µM (inactive) | 126 µM (inactive) | 267 µM (inactive) |
